{"source": "patent US20020015745A1", "about": "“Process for enhancing immune response in canines using a dietary composition including garlic” (priority 2000, published 2002)", "origin": "cited, not measured here", "tested_on": "human prostate carcinoma LNCaP cells", "settings": "in culture", "data": [{"smiles": "C=CCSSC[C@H](N)C(=O)O", "note": "[S-allylmercaptocysteine]", "values": [{"measurement": "growth of human prostate carcinoma LNCaP cells", "result": "reduce the growth"}]}]}
